According to BindingDB's records for doi:10.1016/j.chembiol.2007.06.006 (Northwestern University, 2007):

Target: T1, Progesterone receptor (Homo sapiens, UniProt P06401)
T1 sequence (P06401 whole entry): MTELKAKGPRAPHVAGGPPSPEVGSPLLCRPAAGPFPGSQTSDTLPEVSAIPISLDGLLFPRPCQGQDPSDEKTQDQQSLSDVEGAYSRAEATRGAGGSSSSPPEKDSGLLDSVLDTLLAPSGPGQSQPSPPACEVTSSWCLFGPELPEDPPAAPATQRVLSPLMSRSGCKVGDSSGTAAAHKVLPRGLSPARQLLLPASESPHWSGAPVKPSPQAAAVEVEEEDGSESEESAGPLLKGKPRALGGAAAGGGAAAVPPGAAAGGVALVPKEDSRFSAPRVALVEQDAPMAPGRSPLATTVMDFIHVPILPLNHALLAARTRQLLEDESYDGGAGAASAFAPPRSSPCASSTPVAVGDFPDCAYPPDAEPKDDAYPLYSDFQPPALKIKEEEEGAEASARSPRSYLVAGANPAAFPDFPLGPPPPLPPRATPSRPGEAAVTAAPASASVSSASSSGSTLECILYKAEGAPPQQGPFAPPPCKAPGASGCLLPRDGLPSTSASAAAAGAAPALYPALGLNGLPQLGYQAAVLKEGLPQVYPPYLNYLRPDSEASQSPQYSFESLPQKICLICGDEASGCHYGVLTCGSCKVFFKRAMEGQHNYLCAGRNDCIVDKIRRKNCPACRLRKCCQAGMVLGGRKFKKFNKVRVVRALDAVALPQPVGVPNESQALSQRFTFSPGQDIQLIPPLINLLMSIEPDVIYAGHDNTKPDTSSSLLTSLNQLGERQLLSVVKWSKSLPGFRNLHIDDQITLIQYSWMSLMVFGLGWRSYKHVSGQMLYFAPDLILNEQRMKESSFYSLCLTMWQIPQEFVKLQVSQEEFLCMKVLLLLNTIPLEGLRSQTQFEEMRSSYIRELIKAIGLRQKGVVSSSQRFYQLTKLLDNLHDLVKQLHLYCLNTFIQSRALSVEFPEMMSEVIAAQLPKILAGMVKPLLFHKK
Experiment: Progesterone Receptor Binding Assay
Conditions: 22 °C

| Compound | IC50 [nM] |
| --- | --- |
| C[C@]12CCC(=O)C=C1CCC1C2CC[C@@]2(C)C1CC[C@@H]2C(=O)COCCCCCC[N+]12CC[N+]34CC[N+]56CC[N+]7(CC1)CC(=O)[O][Gd-4]2375([O]C(=O)C4)[O]C(=O)C6 (some centres not stated) [Steroid-Gd (III) conjugate, 2] | 460 |
| C[C@]12CCC(=O)C=C1CCC1C2CC[C@@]2(C)C1CC[C@@H]2C(=O)COCCCCCCNC(=S)Nc1ccc(CC2C[N+]34CC[N+]56CC[N+]78CC[N+]29CC(=O)[O][Gd-5]5739([O]C(=O)C6)([O]C(=O)C8)[O]C(=O)C4)cc1 (some centres not stated) [Steroid-Gd (III) conjugate, 3] | 860 |
